Assay results as given in article PMC7316778 (Nature Communications, 2020).
Where “and” joins values, the source holds several entries; their conditions need not be identical. Equal entries are not always repeated. Where two headings read alike, the source gives them in different places.

Legend:
ABL1 = ABL1 (Homo sapiens, UniProt P00519); test: SelectScreen kinase assay
Description: (§1) Selectivity profiling assays were performed by the Invitrogen SelectScreen™ Services. […] The concentration of ATP was selected to be equal to the KM, unless indicated otherwise.

CAMK1D (CaMKI delta) = CAMK1D (CaMKI delta) (Homo sapiens, UniProt Q8IU85); test: SelectScreen kinase assay
Description: as §1

CAMK1G (CAMKI gamma) = CAMK1G (CAMKI gamma) (Homo sapiens, UniProt Q96NX5); test: SelectScreen kinase assay; details: for Inhibition at 1 µM (%): CAMK1G (CAMKI gamma), ZLYTE, ATP Km app
Description: as §1

CDK16 (PCTK1)/cyclin Y = CDK16 (PCTK1)/cyclin Y (Homo sapiens, UniProt Q00536); test: SelectScreen kinase assay
Description: as §1

CDK4/cyclin D1 = CDK4/cyclin D1 (Homo sapiens, UniProt P11802); test: SelectScreen kinase assay; details: for Inhibition at 1 µM (%): CDK4/cyclin D1, Adapta, ATP 10
Description: as §1

CSNK1G1 (CK1 gamma 1) = CSNK1G1 (CK1 gamma 1) (Homo sapiens, UniProt Q9HCP0); test: SelectScreen kinase assay; details: for Inhibition at 1 µM (%): CSNK1G1 (CK1 gamma 1), ZLYTE, ATP Km app
Description: as §1

DDR1 = DDR1 (Homo sapiens, UniProt Q08345); test: SelectScreen kinase assay
Description: as §1

FGFR4 = FGFR4 (Homo sapiens, UniProt P22455); test: SelectScreen kinase assay
Description: as §1

MAPK11 (p38 beta) = MAPK11 (p38 beta) (Homo sapiens, UniProt Q15759); test: SelectScreen kinase assay
Description: as §1

MAPK13 (p38 delta) = target: T1, MAPK13 (p38 delta) (Homo sapiens, UniProt O15264); test: SelectScreen kinase assay
T1 sequence (O15264 1-365): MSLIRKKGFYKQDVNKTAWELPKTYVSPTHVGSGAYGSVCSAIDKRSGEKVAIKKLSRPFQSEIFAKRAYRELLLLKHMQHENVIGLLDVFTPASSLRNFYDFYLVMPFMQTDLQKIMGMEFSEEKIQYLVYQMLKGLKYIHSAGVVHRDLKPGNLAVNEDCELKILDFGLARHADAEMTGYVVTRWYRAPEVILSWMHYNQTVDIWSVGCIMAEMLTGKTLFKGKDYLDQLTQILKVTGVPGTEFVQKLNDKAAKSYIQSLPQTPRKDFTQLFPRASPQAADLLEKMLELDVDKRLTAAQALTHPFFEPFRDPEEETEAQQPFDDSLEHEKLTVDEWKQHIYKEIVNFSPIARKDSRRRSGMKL
Description: as §1

MAPK3 (ERK1) = MAPK3 (ERK1) (Homo sapiens, UniProt P27361); test: SelectScreen kinase assay
Description: as §1

NTRK2 (TRKB) = NTRK2 (TRKB) (Homo sapiens, UniProt Q16620); test: SelectScreen kinase assay
Description: as §1

PRKCZ (PKC zeta) = target: T2, PRKCZ (PKC zeta) (Homo sapiens, UniProt Q05513); test: SelectScreen kinase assay; details: for Inhibition at 1 µM (%): PRKCZ (PKC zeta), ZLYTE, ATP Km app
T2 sequence (Q05513 1-592): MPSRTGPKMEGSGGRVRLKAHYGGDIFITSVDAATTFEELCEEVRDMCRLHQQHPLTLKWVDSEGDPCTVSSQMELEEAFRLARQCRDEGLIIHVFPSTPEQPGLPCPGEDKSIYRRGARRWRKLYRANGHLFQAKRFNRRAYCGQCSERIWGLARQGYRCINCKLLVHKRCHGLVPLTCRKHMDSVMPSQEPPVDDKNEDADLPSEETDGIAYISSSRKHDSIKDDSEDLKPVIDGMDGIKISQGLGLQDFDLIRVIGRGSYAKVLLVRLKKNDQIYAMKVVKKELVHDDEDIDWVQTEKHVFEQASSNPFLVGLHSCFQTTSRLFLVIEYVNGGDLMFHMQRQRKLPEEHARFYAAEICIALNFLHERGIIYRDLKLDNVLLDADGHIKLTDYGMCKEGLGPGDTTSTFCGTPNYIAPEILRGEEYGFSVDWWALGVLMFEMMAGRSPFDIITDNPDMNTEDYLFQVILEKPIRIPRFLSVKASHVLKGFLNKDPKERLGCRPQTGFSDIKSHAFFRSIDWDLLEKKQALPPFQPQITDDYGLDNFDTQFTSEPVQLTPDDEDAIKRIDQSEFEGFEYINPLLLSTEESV
Description: as §1

ULK3 = target: T3, ULK3 (Homo sapiens, UniProt Q6PHR2); test: SelectScreen kinase assay
T3 sequence (Q6PHR2 1-472): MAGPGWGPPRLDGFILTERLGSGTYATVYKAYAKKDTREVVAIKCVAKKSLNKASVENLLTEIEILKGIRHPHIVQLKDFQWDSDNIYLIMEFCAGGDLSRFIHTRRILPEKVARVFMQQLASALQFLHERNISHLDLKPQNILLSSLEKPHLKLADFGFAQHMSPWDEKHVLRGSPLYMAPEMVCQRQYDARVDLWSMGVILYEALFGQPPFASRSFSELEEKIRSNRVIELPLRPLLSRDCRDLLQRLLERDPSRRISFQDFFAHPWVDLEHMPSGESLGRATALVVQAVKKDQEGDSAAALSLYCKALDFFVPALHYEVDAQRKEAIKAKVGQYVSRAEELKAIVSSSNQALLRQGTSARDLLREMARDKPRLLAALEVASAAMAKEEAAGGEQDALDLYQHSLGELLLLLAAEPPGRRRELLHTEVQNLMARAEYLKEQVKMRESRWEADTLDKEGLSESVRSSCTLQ
Description: as §1

ZAP70 = ZAP70 (Homo sapiens, UniProt P43403); test: SelectScreen kinase assay; details: 1 h, 1 μM WEL028, 1 h preincubation
Description: as §1

FES^S700C = FES^S700C (Homo sapiens, UniProt P07332, S700C); test: In situ two-step labeling of transfected HEK293T cells (click chemistry); format: cell-based; parameters: expressed in transfected cells; host or cells: HEK293T (transient, PEI)
[1] = 1 h, 1 μM WEL028, 1 h preincubation

CSNK1G1 (CK1 gamma 1), sequence (Q9HCP0 whole entry): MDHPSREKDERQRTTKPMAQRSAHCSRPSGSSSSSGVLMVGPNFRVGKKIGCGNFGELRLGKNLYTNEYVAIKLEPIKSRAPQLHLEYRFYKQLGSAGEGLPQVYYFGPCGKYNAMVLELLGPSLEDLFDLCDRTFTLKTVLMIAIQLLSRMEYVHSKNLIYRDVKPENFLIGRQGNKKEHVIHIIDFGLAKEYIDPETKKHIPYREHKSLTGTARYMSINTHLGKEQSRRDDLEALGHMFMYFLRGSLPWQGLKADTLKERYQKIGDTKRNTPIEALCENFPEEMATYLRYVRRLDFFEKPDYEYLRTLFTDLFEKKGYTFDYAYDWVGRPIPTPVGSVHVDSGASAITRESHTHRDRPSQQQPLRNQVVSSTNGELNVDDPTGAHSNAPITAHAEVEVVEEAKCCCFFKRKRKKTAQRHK
MAPK3 (ERK1), sequence (P27361 whole entry): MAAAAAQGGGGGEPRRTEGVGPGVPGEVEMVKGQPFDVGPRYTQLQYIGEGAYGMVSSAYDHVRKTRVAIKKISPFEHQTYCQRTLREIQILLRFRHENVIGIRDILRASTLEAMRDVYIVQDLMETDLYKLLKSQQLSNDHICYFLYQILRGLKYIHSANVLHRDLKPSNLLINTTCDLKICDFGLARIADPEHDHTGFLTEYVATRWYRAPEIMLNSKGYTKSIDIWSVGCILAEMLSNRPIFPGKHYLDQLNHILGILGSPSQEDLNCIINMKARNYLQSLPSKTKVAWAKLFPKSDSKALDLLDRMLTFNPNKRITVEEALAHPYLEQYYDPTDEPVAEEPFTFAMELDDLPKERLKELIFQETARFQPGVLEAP
CDK4/cyclin D1, sequence (P11802 whole entry): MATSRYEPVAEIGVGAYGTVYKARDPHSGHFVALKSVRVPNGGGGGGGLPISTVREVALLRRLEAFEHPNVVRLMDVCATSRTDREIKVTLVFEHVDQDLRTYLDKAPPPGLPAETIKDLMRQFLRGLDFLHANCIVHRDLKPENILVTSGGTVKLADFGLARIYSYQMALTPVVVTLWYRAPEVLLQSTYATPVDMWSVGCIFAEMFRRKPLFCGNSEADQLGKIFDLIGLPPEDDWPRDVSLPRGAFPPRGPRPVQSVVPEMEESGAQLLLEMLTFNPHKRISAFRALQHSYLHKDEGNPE
CDK4/cyclin D1, sequence (P24385 whole entry partner): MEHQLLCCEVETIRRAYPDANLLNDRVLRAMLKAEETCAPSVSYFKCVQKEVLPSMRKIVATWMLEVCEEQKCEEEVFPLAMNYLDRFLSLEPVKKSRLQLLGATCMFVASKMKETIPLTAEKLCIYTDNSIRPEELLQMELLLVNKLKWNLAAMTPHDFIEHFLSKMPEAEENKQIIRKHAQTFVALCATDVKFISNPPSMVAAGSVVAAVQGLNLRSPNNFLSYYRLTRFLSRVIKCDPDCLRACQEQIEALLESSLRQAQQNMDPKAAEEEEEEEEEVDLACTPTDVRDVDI
ABL1, sequence (P00519 whole entry): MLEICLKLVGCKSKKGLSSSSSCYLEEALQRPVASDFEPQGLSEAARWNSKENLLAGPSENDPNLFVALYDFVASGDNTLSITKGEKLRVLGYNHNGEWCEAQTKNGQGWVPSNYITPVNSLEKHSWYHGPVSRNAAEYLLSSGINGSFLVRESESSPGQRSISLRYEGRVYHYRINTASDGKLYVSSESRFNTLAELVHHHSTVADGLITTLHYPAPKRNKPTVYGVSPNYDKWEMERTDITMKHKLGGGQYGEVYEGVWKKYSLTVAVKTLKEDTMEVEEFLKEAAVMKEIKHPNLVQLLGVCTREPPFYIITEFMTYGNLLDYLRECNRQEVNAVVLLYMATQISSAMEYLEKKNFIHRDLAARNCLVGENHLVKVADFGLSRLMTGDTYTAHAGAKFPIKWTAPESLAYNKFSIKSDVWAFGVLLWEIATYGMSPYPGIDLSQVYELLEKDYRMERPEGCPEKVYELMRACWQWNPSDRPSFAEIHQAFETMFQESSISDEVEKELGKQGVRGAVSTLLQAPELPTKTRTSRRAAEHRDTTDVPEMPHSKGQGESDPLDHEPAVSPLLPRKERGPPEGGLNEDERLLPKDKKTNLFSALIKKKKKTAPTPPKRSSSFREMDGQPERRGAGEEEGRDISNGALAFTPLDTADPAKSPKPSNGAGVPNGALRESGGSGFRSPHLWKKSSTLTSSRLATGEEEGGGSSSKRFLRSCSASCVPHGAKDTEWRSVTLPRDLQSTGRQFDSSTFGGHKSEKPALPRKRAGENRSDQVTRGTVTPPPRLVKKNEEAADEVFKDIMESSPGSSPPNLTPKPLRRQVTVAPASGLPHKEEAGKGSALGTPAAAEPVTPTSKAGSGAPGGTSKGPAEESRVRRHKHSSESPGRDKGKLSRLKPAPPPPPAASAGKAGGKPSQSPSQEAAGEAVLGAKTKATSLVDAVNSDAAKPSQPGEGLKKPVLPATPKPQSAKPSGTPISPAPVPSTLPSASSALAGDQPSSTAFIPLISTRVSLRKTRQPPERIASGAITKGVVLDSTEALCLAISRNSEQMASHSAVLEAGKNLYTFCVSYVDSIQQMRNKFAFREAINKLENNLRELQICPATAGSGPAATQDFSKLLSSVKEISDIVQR
FES^S700C, sequence (P07332 whole entry S700C): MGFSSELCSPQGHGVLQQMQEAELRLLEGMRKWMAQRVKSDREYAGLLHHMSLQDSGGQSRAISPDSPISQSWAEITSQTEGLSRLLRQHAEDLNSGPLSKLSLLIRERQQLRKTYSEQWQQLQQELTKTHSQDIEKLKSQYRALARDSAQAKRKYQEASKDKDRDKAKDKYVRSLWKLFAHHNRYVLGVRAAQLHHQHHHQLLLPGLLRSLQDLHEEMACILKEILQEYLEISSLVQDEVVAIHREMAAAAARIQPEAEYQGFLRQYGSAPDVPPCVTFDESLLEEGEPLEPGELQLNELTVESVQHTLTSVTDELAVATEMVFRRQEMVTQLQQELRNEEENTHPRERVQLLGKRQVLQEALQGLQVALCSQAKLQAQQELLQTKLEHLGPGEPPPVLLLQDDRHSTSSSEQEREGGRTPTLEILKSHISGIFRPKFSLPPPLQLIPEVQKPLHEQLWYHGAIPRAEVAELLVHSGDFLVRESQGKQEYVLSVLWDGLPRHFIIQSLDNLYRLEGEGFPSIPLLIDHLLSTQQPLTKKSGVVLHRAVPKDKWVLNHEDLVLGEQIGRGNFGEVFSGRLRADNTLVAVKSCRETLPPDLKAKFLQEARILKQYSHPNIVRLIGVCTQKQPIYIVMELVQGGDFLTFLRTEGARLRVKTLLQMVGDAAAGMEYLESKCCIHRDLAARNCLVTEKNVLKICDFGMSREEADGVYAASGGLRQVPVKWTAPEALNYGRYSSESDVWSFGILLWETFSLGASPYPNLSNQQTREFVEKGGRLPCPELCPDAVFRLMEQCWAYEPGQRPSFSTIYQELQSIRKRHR
NTRK2 (TRKB), sequence (Q16620 32-822): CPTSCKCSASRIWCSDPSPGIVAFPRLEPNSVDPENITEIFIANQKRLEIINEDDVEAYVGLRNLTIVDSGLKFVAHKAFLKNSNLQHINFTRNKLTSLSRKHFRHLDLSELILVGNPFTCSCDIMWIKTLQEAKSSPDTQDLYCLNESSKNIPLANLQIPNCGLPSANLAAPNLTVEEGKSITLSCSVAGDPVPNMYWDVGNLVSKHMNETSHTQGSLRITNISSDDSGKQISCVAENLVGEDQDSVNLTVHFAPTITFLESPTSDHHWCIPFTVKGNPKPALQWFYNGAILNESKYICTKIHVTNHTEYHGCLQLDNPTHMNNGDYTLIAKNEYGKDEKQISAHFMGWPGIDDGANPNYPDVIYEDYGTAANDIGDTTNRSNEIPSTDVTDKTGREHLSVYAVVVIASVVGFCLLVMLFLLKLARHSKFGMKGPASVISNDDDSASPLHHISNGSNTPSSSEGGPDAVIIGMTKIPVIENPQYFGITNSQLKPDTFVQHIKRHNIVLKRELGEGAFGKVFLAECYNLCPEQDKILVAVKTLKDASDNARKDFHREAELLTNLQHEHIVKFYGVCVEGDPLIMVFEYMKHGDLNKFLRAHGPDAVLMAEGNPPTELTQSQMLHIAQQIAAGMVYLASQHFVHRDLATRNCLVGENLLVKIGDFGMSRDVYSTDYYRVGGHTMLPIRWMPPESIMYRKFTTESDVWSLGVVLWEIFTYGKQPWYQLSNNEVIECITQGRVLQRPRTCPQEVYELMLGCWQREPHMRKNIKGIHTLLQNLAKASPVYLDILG
FGFR4, sequence (P22455 22-802): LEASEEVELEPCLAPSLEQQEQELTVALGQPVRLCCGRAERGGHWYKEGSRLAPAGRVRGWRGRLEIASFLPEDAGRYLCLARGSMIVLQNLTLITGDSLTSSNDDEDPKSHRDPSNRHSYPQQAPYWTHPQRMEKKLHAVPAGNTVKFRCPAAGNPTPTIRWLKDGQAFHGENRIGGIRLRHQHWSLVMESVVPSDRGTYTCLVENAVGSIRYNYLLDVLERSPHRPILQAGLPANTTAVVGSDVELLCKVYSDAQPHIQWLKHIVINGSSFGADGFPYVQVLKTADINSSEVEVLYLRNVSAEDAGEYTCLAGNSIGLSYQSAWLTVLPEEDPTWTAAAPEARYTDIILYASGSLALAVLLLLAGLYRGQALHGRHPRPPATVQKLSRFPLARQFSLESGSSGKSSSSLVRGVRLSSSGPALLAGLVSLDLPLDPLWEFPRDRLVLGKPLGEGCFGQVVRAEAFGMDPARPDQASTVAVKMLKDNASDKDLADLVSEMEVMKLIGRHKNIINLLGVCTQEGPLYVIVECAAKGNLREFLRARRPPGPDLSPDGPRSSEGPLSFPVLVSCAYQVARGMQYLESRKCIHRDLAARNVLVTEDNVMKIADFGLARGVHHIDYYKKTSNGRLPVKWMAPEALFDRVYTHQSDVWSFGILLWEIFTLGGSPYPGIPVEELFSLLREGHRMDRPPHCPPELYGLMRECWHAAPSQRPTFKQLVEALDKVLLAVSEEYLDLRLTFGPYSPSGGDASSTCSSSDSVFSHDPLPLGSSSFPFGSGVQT

Structure (SMILES): C#CCOc1ccc(Nc2ncc(Cl)c(Nc3ccccc3NC(=O)C=C)n2)c(OC)c1 [Compound 6]
- inhibition at 1 µM (ABL1; [1]): -3%
- Inhibition at 1 µM (%) (ABL1; ABL1, 1 µM, ZLYTE, ATP Km app, listed as WEL028, 1 µM): -7% and 1%
- inhibition at 1 µM (CAMK1D (CaMKI delta); [1]): 6%
- inhibition at 1 µM (CAMK1D (CaMKI delta); read-out: Inhibition at 1 µM (%), CAMK1D (CaMKI delta), 1 µM, ZLYTE, ATP Km app): 5%
- inhibition at 1 µM (CAMK1G (CAMKI gamma); [1]): 2%
- Inhibition at 1 µM (%) (CAMK1G (CAMKI gamma)): 3%
- Inhibition at 1 µM (%) (CAMK1G (CAMKI gamma); listed as WEL028, 1 µM): 1%
- inhibition at 1 µM (CDK16 (PCTK1)/cyclin Y; [1]): 0%
- Inhibition at 1 µM (%) (CDK16 (PCTK1)/cyclin Y; CDK16 (PCTK1)/cyclin Y, 1 µM, LanthaScreen Binding, listed as WEL028, 1 µM): -1%
- inhibition at 1 µM (CDK4/cyclin D1; [1]): -10%
- Inhibition at 1 µM (%) (CDK4/cyclin D1): -14%
- Inhibition at 1 µM (%) (CDK4/cyclin D1; listed as WEL028, 1 µM): -6%
- Inhibition (%) (CSNK1G1 (CK1 gamma 1); 1 μM WEL028, 1 h preincubation): 4%
- Inhibition at 1 µM (%) (CSNK1G1 (CK1 gamma 1)): 2%
- Inhibition at 1 µM (%) (CSNK1G1 (CK1 gamma 1); listed as WEL028, 1 µM): 7%
- inhibition at 1 µM (DDR1; [1]): -2%
- Inhibition at 1 µM (%) (DDR1; DDR1, 1 µM, LanthaScreen Binding, listed as WEL028, 1 µM): -3%
- inhibition at 1 µM (FGFR4; [1]): 34%
- Inhibition at 1 µM (%) (FGFR4; FGFR4, 1 µM, ZLYTE, ATP Km app, listed as WEL028, 1 µM): 38%
- inhibition at 1 µM (FGFR4; read-out: Inhibition at 1 µM (%), FGFR4, 1 µM, ZLYTE, ATP Km app): 31%
- inhibition at 1 µM (MAPK11 (p38 beta); [1]): 6%
- Inhibition at 1 µM (%) (MAPK11 (p38 beta); MAPK11 (p38 beta), 1 µM, ZLYTE, ATP Km app, listed as WEL028, 1 µM): 7%
- inhibition at 1 µM (MAPK11 (p38 beta); read-out: Inhibition at 1 µM (%), MAPK11 (p38 beta), 1 µM, ZLYTE, ATP Km app): 6%
- inhibition at 1 µM (MAPK13 (p38 delta); [1]): 5%
- Inhibition at 1 µM (%) (MAPK13 (p38 delta); MAPK13 (p38 delta), 1 µM, ZLYTE, ATP Km app, listed as WEL028, 1 µM): 6%
- inhibition at 1 µM (MAPK13 (p38 delta); read-out: Inhibition at 1 µM (%), MAPK13 (p38 delta), 1 µM, ZLYTE, ATP Km app): 4%
- inhibition at 1 µM (MAPK3 (ERK1); [1]): 19%
- Inhibition at 1 µM (%) (MAPK3 (ERK1); MAPK3 (ERK1), 1 µM, ZLYTE, ATP Km app, listed as WEL028, 1 µM): 14%
- inhibition at 1 µM (MAPK3 (ERK1); read-out: Inhibition at 1 µM (%), MAPK3 (ERK1), 1 µM, ZLYTE, ATP Km app): 23%
- inhibition at 1 µM (NTRK2 (TRKB); [1]): 5%
- Inhibition at 1 µM (%) (NTRK2 (TRKB); NTRK2 (TRKB), 1 µM, ZLYTE, ATP Km app, listed as WEL028, 1 µM): 0% and 9%
- inhibition at 1 µM (PRKCZ (PKC zeta); [1]): -1%
- Inhibition at 1 µM (%) (PRKCZ (PKC zeta)): 3%
- Inhibition at 1 µM (%) (PRKCZ (PKC zeta); listed as WEL028, 1 µM): -5%
- Inhibition (%) (ULK3; 1 μM WEL028, 1 h preincubation): 26%
- Inhibition at 1 µM (%) (ULK3; 1 µM, LanthaScreen Binding, listed as WEL028, 1 µM): 27%
- inhibition at 1 µM (ULK3; read-out: Inhibition at 1 µM (%), 1 µM, LanthaScreen Binding): 25%
- inhibition at 1 µM (ZAP70): 2%
- Cell permeability (FES^S700C; living HEK293T cells): cell-permeable
- Concentration sufficient to fully block labeling of FES^S700C (FES^S700C; living HEK293T cells): 100 nM
- IC50 (FES^S700C; transfected HEK293T cells treated with WEL028, click chemistry, n = 3, read-out: pIC50, labeling of FES^S700C in live cells (converted)): 25.1 nM
